In the Kinase Knowledgebase extract (Sharma et al. 2016):

The compounds below were run against MAPK14 (UniProt Q16539) (assay: p38 Inhibition Assay (in Vitro)).
Chain of MAPK14 (Q16539 whole entry, looked up): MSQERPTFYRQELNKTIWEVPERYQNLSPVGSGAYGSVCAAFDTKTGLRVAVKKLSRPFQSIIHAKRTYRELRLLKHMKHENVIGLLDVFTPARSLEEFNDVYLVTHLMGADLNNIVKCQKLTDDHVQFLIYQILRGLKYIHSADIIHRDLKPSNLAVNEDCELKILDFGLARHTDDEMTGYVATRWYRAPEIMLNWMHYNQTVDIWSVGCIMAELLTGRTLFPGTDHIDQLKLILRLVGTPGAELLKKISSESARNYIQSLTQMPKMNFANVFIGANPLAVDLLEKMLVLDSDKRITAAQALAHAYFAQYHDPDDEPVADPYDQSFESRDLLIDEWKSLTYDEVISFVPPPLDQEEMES

IC50, > 30 µM:
O=C(NCc1ccc(S(=O)(=O)N2CCN(C(=O)c3cccc4ccccc34)CC2)s1)c1ccc(Cl)cc1
NS(=O)(=O)c1cccc(NC2CCN(S(=O)(=O)c3ccc(CNC(=O)c4ccc(Cl)cc4)s3)CC2)c1
COc1cccc(C(=O)NCc2ccc(S(=O)(=O)N3CCC(Nc4ccccc4[N+](=O)[O-])CC3)s2)c1
CCCc1cccc(NC2CCN(S(=O)(=O)c3ccc(CNC(=O)c4ccc(Cl)cc4)s3)CC2)c1
O=C(NCc1ccc(S(=O)(=O)N2CCC(Nc3ccc(Cl)cc3)CC2)s1)c1ccc(Cl)cc1
COc1cccc(NC2CCN(S(=O)(=O)c3ccc(CNC(=O)c4ccc([N+](=O)[O-])cc4)s3)CC2)c1
O=C(NCc1ccc(S(=O)(=O)N2CCC(Nc3ccccc3)CC2)s1)c1ccc(Cl)cc1
O=C(NCc1ccc(S(=O)(=O)N2CCC(n3nnc4ccccc43)CC2)s1)c1ccccc1O
COC(=O)c1cccc(NC2CCN(S(=O)(=O)c3ccc(CNC(=O)c4ccc([N+](=O)[O-])cc4)s3)CC2)c1
O=C(NCc1ccc(S(=O)(=O)N2CCC(n3nnc4ccccc43)CC2)s1)c1ccc(Cl)cc1
O=C(NCc1ccc(S(=O)(=O)N2CCC(n3cnc4ccccc43)CC2)s1)c1ccc(Cl)cc1
O=C(NCc1ccc(S(=O)(=O)N2CCC(Nc3cccc(S(=O)(=O)CCO)c3)CC2)s1)c1ccc(Cl)cc1
O=C(NCc1ccc(S(=O)(=O)N2CCC(C(=O)c3ccc(F)cc3F)CC2)s1)c1ccc(Cl)cc1
O=C(NCc1ccc(S(=O)(=O)N2CCCN(C(=O)Cc3ccccc3)CC2)s1)c1ccc(Cl)cc1
